Assay results published in patent US10125098B2, “Therapeutic compounds and methods of use thereof” (GENENTECH, INC., priority 2014, dated 2018).
Like-named read-outs stand apart in the source and are kept apart here.

Tests used:
hNav1.7 = target: T1, hNav1.7 (Homo sapiens, UniProt Q15858); assay: Tritiated compound binding (LBA) to membranes from cells expressing hNav1.7 and the β1 subunit, competitive binding; settings: competitive binding vs 100 pM [3H]compound, 18 h, room temperature, membranes with hNav1.7 and β1 subunit
T1 construct: expressed in transfected cells
T1 sequence (Q15858 1-1977 isoform Q15858-3): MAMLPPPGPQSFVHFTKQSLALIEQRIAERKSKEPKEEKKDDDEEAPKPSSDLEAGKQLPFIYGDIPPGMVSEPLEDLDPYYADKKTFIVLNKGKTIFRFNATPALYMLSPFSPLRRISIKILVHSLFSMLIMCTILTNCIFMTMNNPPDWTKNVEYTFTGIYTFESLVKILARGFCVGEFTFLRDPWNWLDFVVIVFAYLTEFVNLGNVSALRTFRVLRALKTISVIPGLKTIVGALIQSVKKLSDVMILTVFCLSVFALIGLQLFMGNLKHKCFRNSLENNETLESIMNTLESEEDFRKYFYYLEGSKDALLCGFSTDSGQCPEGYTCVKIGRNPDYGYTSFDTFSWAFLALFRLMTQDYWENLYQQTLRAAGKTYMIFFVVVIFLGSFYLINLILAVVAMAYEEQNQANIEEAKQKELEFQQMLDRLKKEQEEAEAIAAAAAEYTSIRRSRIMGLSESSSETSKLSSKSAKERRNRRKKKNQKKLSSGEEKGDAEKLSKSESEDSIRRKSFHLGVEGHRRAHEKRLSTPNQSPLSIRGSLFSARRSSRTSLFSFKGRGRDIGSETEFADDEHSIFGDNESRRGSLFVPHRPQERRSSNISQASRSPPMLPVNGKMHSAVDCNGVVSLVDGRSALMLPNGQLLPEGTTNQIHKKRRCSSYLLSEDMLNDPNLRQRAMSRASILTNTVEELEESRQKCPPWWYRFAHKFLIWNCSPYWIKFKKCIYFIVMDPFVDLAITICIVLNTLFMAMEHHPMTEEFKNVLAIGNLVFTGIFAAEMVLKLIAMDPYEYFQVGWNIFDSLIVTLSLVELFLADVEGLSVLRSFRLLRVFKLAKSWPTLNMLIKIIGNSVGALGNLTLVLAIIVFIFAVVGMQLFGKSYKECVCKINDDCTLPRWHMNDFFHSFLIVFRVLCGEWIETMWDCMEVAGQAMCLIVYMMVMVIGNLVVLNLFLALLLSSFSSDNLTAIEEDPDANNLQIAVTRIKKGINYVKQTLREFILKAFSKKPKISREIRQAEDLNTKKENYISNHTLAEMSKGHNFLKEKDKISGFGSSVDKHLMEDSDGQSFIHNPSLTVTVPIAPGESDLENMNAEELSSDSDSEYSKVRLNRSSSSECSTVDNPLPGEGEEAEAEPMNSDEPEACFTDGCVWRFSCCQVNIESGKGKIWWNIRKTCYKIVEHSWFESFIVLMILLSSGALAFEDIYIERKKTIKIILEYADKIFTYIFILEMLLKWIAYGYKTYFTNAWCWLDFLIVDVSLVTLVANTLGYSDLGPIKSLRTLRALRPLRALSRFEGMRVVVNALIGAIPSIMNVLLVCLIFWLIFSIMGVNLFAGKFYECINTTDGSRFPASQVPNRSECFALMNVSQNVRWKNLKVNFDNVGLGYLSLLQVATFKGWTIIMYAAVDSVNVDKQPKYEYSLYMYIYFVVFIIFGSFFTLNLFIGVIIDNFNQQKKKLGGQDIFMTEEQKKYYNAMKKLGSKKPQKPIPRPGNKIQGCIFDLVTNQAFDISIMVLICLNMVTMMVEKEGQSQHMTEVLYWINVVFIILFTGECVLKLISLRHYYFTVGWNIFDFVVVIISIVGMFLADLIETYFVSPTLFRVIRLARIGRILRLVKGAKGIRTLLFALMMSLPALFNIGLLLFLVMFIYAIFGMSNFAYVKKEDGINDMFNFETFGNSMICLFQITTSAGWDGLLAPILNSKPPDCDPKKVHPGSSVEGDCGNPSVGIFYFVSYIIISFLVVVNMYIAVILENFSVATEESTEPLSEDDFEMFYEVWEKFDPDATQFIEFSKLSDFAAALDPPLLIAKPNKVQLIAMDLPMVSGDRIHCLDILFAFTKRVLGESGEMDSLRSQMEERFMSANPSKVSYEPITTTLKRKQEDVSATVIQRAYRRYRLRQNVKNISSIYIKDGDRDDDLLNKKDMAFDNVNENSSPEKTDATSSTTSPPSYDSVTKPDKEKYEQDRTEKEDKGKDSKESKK
T1 sequence (Q07699 19-218 partner): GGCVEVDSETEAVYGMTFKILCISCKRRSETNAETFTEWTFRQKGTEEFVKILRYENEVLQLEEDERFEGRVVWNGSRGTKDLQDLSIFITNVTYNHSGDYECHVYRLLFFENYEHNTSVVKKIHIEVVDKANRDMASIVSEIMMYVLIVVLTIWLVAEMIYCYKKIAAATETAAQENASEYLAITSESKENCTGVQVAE
Procedure, shortened: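 Membranes from cells expressing hNav1.7 with β1 were incubated 18 h at room temperature with 100 pM tritiated formula (I) compound and increasing test compound, in 100 mM NaCl, 20 mM Tris HCl pH 7.4, 0.01% BSA.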

human NaV1.7 = target: T2, human NaV1.7 (Homo sapiens, UniProt Q15858); assay: Patch voltage clamp electrophysiology assay (EP), NaV1.7; type: cell-based; settings: HEK-293 cells stably expressing NaV1.7 with β1 subunit; whole-cell patch clamp, membrane potential −60 mV (inactivated state)
T2 construct: permanently transfected with an expression vector containing the full-length cDNA coding for the desired human sodium channel α-subunit; expressed in transfected cells; host or cells: HEK-293
T2 sequence (Q15858 1-1977 isoform Q15858-3): as the sequence (Q15858 1-1977 isoform Q15858-3) above
T2 sequence (Q07699 19-218 partner): as the sequence (Q07699 19-218 partner) above
Description: (§1) The following patch voltage clamp electrophysiology studies were performed on representative compounds of the invention using human embryonic kidney cells (HEK), permanently transfected with an expression vector containing the full-length cDNA coding for the desired human sodium channel α-subunit, grown in culture media containing 10% FBS, 1% PSG, and 0.5 mg/mL G418 at 37° C. with 5% CO2. […] NaV1.7 and NaV1.5 cDNAs (NM_002977 and AC137587; SCN5A, respectively) were stably expressed in HEK-293 cells. The β1 subunit was coexpressed in both the NaV1.7 and NaV1.5 cell lines.
(§2) Sodium currents were measured using the patch clamp technique in the whole-cell configuration using either a PatchXpress automated voltage clamp or manually using an Axopatch 200B (Axon Instruments) or Model 2400 (A-M systems) amplifier. The manual voltage clamp protocol was as follows: Borosilicate glass micropipettes were fire-polished to a tip diameter yielding a resistance of 2-4 Mohms in the working solutions. The pipette was filled with a solution comprised of: 5 mM NaCl, 10 mM CsCl, 120 mM CsF, 0.1 mM CaCl2, 2 mM MgCl2, 10 mM HEPES, 10 mM EGTA; and adjusted to pH 7.2 with CsOH. The external solution had the following composition: 140 mM NaCl, 5 mM KCl, 2 mM CaCl2, 1 mM MgCl2, 10 mM HEPES; and adjusted to pH 7.4 with NaOH. In some studies, the external sodium was reduced by equimolar replacement with choline. Osmolarity in the CsF internal and NaCl external solutions was adjusted to 300 mOsm/kg and 310 mOsm/kg with glucose, respectively. All recordings were performed at ambient temperature in a bath chamber with a volume of 150 μL. Control sodium currents were measured in 0.5% DMSO. Controls and representative compounds of the invention were applied to the recording chamber through a 4-pinch or 8-pinch valve bath perfusion system manufactured by ALA Scientific Instruments.
(§3) Series resistance compensation was applied (60-80%). […] All statistics in this study are given as mean±SD.
(§4) The membrane potential was maintained at a voltage where inactivation of the channel is complete (which was −60 mV for both NaV1.7 and NaV1.5). The voltage is then stepped back to a very negative (Vhold=[…]) voltage for 20 ms and then a test pulse is applied to quantify the compound block. […] The percent decrease in sodium current following wash-on of compound was taken as the percent block of sodium channels.

NaV1.5 = target: T3, NaV1.5 (Homo sapiens, UniProt Q14524); assay: Patch voltage clamp electrophysiology assay (EP), NaV1.5; type: cell-based; settings: HEK-293 cells stably expressing NaV1.5 with β1 subunit, whole-cell patch clamp, membrane potential −60 mV (inactivated state)
T3 construct: permanently transfected with an expression vector containing the full-length cDNA coding for the desired human sodium channel α-subunit; expressed in transfected cells; host or cells: HEK-293
T3 sequence (Q14524 whole entry): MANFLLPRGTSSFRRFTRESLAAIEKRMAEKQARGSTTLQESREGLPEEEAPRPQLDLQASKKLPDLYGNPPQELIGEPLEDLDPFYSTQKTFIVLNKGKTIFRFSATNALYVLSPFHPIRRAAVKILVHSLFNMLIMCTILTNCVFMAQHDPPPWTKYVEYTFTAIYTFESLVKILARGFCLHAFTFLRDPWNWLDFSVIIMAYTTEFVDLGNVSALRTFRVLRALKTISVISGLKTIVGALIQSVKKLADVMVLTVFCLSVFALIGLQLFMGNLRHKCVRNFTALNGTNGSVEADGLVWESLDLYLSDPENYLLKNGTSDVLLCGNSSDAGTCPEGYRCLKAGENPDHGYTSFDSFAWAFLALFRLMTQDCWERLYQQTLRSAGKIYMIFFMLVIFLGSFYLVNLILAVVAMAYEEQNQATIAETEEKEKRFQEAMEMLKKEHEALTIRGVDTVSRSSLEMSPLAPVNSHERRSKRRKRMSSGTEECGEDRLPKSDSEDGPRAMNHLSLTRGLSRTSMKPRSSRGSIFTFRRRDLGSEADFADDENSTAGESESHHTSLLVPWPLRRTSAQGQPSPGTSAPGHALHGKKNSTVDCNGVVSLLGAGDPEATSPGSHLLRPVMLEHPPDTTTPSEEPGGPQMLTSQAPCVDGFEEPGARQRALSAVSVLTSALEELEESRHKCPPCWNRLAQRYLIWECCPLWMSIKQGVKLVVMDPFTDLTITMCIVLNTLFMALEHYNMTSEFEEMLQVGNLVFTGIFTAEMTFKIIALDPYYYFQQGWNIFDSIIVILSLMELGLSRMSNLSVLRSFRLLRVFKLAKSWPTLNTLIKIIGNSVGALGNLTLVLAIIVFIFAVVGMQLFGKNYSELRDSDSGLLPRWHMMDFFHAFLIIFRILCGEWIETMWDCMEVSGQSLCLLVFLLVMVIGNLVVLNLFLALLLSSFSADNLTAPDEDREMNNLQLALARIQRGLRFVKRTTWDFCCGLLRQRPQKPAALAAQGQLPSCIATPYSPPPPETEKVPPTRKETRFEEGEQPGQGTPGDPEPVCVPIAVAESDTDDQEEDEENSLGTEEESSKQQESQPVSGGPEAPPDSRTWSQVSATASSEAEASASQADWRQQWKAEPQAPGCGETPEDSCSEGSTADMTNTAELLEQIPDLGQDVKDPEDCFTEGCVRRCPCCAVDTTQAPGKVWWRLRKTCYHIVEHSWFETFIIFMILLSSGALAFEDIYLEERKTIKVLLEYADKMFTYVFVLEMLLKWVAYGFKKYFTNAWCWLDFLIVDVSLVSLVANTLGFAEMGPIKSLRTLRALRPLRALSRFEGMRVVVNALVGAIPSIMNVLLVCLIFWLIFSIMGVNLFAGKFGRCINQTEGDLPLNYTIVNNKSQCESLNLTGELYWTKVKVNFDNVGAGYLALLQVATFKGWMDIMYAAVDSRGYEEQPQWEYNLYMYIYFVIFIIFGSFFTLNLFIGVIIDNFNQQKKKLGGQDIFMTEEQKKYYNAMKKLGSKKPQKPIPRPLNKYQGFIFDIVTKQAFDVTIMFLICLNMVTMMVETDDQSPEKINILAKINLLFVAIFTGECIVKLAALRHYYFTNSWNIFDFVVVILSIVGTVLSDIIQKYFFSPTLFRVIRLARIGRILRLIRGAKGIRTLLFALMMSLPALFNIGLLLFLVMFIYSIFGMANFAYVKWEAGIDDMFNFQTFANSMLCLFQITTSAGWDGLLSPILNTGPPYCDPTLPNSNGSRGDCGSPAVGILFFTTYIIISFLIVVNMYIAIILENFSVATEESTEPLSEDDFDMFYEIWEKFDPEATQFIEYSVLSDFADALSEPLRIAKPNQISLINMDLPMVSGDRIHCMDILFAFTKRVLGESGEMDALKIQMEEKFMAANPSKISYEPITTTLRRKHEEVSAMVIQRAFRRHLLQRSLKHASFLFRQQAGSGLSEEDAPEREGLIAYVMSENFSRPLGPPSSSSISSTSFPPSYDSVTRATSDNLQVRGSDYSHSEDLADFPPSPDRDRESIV
Description: as §1, §2, §3, §4

[1] = human, HEK-293 cells stably expressing human NaV1.5 with β1 subunit, pH 7.4

Row | Compound | IC50 (hNav1.7) [nM] | IC50 (human NaV1.7) [nM] | IC50 (NaV1.5; read-out: Nav1.5) [nM] | IC50 (NaV1.5; [1]) [nM]
1 | O=C(N[C@H](C(=O)O)C1CC1)c1cc(C2CC2)c(OCC2CCN([C@@H](c3ccccc3)c3cc(Cl)cc(Cl)c3)CC2)cc1F (single isomer, unassigned) [Example 119] | 15 | 850 | 9400 | –
2 | C[C@H]1CCN(C(=O)c2cc(C3CC3)c(OCC3CCN([C@H](c4cc(Cl)cc(Cl)c4)C(F)(F)F)CC3)cc2F)[C@@H]1C(=O)O (single isomer, unassigned) [Example 121a] | 20 | 880 | 13000 | –
3 | C[C@H]1CCN(C(=O)c2cc(C3CC3)c(OCC3CCN([C@@H](c4cc(Cl)cc(Cl)c4)C(F)(F)F)CC3)cc2F)[C@@H]1C(=O)O (single isomer, unassigned) [Example 121b] | 18 | 880 | 17000 | –
4 | O=C(O)[C@@H]1CCCN1C(=O)c1cc(C2CC2)c(OCC2CCN([C@H](c3cc(Cl)cc(Cl)c3)C(F)(F)F)CC2)cc1F (single isomer, unassigned) [Example 123a] | 48 | 490 | 7100 | –
5 | O=C(O)[C@@H]1CCCN1C(=O)c1cc(C2CC2)c(OCC2CCN([C@@H](c3cc(Cl)cc(Cl)c3)C(F)(F)F)CC2)cc1F (single isomer, unassigned) [Example 123b] | 31 | 410 | 7700 | –
6 | O=C(O)[C@@H]1C[C@@H](F)CN1C(=O)c1cc(C2CC2)c(OCC2CCN([C@@H](c3ccccc3)c3cc(Cl)cc(Cl)c3)CC2)cc1F (single isomer, unassigned) [Example 125] | 16 | 380 | 6200 | –
7 | C[C@H](c1cc(Cl)cc(Cl)c1)N1CCC(C#N)(COc2cc(F)c(C(=O)N3C[C@H](F)C[C@H]3C(=O)O)cc2C2CC2)CC1 (single isomer, unassigned) [Example 126a] | 120 | 2300 | 10000 | –
8 | C[C@@H](c1cc(Cl)cc(Cl)c1)N1CCC(C#N)(COc2cc(F)c(C(=O)N3C[C@H](F)C[C@H]3C(=O)O)cc2C2CC2)CC1 (single isomer, unassigned) [Example 126b] | 100 | 1400 | 10000 | –
9 | C[C@@H](c1cc(Cl)cc(Cl)c1)N1CCC(C)(COc2cc(F)c(C(=O)N3C[C@H](F)C[C@H]3C(=O)O)cc2C2CC2)CC1 (single isomer, unassigned) [Example 132a] | 24 | 330 | 17000 | –
10 | C[C@H](c1cc(Cl)cc(Cl)c1)N1CCC(C)(COc2cc(F)c(C(=O)N3C[C@H](F)C[C@H]3C(=O)O)cc2C2CC2)CC1 (single isomer, unassigned) [Example 132b] | 24 | 430 | – | ≥ 30000
11 | C[C@@]1(COc2cc(F)c(C(=O)N3CCC[C@H]3C(=O)O)cc2C2CC2)CCN(Cc2cc(F)cc(Cl)c2)C1 (single isomer, unassigned) [Example 137a] | 570 | 3700 | 15000 | –
12 | C[C@]1(COc2cc(F)c(C(=O)N3CCC[C@H]3C(=O)O)cc2C2CC2)CCN(Cc2cc(F)cc(Cl)c2)C1 (single isomer, unassigned) [Example 137b] | 310 | 2400 | – | ≥ 30000
13 | C[C@H]1OCN(C(=O)c2cc(C3CC3)c(OCC3CCN([C@H](c4cc(Cl)cc(Cl)c4)C(F)(F)F)CC3)cc2F)[C@@H]1C(=O)O (single isomer, unassigned) [Example 138a] | 6.9 | 300 | 13000 | –
14 | C[C@H]1OCN(C(=O)c2cc(C3CC3)c(OCC3CCN([C@@H](c4cc(Cl)cc(Cl)c4)C(F)(F)F)CC3)cc2F)[C@@H]1C(=O)O (single isomer, unassigned) [Example 138b] | 7.6 | 320 | 11000 | –
15 | O=C(O)[C@@H]1CCCN1C(=O)c1cc(C2CC2)c(OC[C@H]2CCN(C(c3ccccc3)c3ccccc3)C2)cc1F (single isomer, unassigned) [Example 139a] | 650 | 5000 | 25000 | –
16 | O=C(O)[C@@H]1CCCN1C(=O)c1cc(C2CC2)c(OC[C@@H]2CCN(C(c3ccccc3)c3ccccc3)C2)cc1F (single isomer, unassigned) [Example 139b] | 800 | 7100 | 22000 | –
17 | O=C(O)[C@@H]1C[C@@H](F)CN1C(=O)c1cc(C2CC2)c(OCC2CCN([C@H](c3cc(Cl)cc(Cl)c3)C(F)(F)F)CC2)cc1F (single isomer, unassigned) [Example 140a] | 14 | 170 | 2700 | –
18 | O=C(O)[C@@H]1C[C@@H](F)CN1C(=O)c1cc(C2CC2)c(OCC2CCN([C@@H](c3cc(Cl)cc(Cl)c3)C(F)(F)F)CC2)cc1F (single isomer, unassigned) [Example 140b] | 21 | 160 | 3700 | –
19 | O=C(NC(C(=O)O)C1CC1)c1cc(C2CC2)c(COc2cc(Cl)cc(OC(F)(F)F)c2)cc1F (stereo in doubt) [Example 120, (R)-2-(4-((3-chloro-5-(trifluoromethoxy)phenoxy)methyl)-5-cyclopropyl-2-fluorobenzamido)-2-cyclopropylacetic acid] | 27 | 290 | 14000 | –
20 | CC1(C)CCN(C(=O)c2cc(C3CC3)c(OCC34CC5CC(CC(C5)C3)C4)cc2F)C1C(=O)O (stereo in doubt) [Example 151, (2R)-1-[4-(1-adamantylmethoxy)-5-cyclopropyl-2-fluoro-benzoyl]-3,3-dimethyl-pyrrolidine-2-carboxylic acid] | 58 | 780 | 5200 | –
21 | O=C(O)C1COCN1C(=O)c1cc(C2CC2)c(OCC23CC4CC(CC(C4)C2)C3)cc1F (stereo in doubt) [Example 154, (4R)-3-[4-(1-adamantylmethoxy)-5-cyclopropyl-2-fluoro-benzoyl]oxazolidine-4-carboxylic acid] | 59 | 830 | 16000 | –
22 | O=C(O)[C@@H]1[C@H]2C[C@H]2CN1C(=O)c1cc(C2CC2)c(OCC23CC4CC(CC(C4)C2)C3)cc1F (stereo in doubt) [Example 171, 3-[4-(1-adamantylmethoxy)-5-cyclopropyl-2-fluoro-benzoyl]-3-azabicyclo[3.1.0]hexane-4-carboxylic acid] | 25 | 240 | 9000 | –
23 | O=C(O)[C@@H]1CCCN1C(=O)c1cc(C2CC2)c(OCC23CC4CC(CC(C4)C2)C3)cc1F [Example 1, (S)-1-(4-(adamantan-1-ylmethoxy)-5-cyclopropyl-2-fluorobenzoyl)pyrrolidine-2-carboxylic acid] | 19.6 | 13.5 | 3500 | –
24 | O=C(NC1(C(=O)O)CC1)c1cc(C2CC2)c(OCC23CC4CC(CC(C4)C2)C3)cc1F [Example 6, 1-(4-(adamantan-1-ylmethoxy)-5-cyclopropyl-2-fluorobenzamido)-cyclopropanecarboxylic acid] | 3580 | 532 | 2120 | –
25 | C[C@H](NC(=O)c1cc(C2CC2)c(OCC23CC4CC(CC(C4)C2)C3)cc1F)C(=O)O [Example 11, (S)-2-(4-(adamantan-1-ylmethoxy)-5-cyclopropyl-2-fluorobenzamido)propanoic acid] | 200 | 36.1 | 2190 | –
26 | O=C(O)[C@H]1CSCN1C(=O)c1cc(C2CC2)c(OCC23CC4CC(CC(C4)C2)C3)cc1F [Example 50, (4S)-3-[4-(1-adamantylmethoxy)-5-cyclopropyl-2-fluoro-benzoyl]thiazolidine-4-carboxylic acid] | 30 | 340 | 19400 | –
